PubChem BioAssay (NCI)
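48-hour exposure; five concentrations; linearly interpolated endpoints. TGI: concentration producing complete growth inhibition.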

Legend:
Assay in all cases: DTP human tumour cell line panel, 48 h
HOP-62 NSCLC = test system: HOP-62 NSCLC
SK-MEL-2 melanoma = test system: SK-MEL-2 melanoma
HT29 colon = test system: HT29 colon
OVCAR-4 ovarian = test system: OVCAR-4 ovarian
SF-539 CNS = test system: SF-539 CNS
KM20L2 colon = test system: KM20L2 colon
NCI-H23 lung = test system: NCI-H23 lung
SR leukemia = test system: SR leukemia
HL-60(TB) leukemia = test system: HL-60(TB) leukemia
LXFL 529 NSCLC = test system: LXFL 529 NSCLC
SF-295 CNS = test system: SF-295 CNS
UACC-62 melanoma = test system: UACC-62 melanoma
U251 CNS = test system: U251 CNS
HOP-92 NSCLC = test system: HOP-92 NSCLC
UACC-257 melanoma = test system: UACC-257 melanoma
IGROV1 ovarian = test system: IGROV1 ovarian
NCI-H522 lung = test system: NCI-H522 lung
UO-31 renal = test system: UO-31 renal
NCI-H460 lung = test system: NCI-H460 lung
HCC-2998 colon = test system: HCC-2998 colon
SK-MEL-28 melanoma = test system: SK-MEL-28 melanoma
SF-268 CNS = test system: SF-268 CNS
DMS 114 small cell lung = test system: DMS 114 small cell lung
OVCAR-3 ovarian = test system: OVCAR-3 ovarian
SNB-75 CNS = test system: SNB-75 CNS
MOLT-4 leukemia = test system: MOLT-4 leukemia
KM12 colon = test system: KM12 colon
RPMI-8226 leukemia = test system: RPMI-8226 leukemia
SNB-78 CNS = test system: SNB-78 CNS
M19-MEL melanoma = test system: M19-MEL melanoma
COLO 205 colon = test system: COLO 205 colon
SK-OV-3 ovarian = test system: SK-OV-3 ovarian
HCT-116 colon = test system: HCT-116 colon
OVCAR-5 ovarian = test system: OVCAR-5 ovarian
ACHN renal = test system: ACHN renal
M14 melanoma = test system: M14 melanoma
TK-10 renal = test system: TK-10 renal
SK-MEL-5 melanoma = test system: SK-MEL-5 melanoma
SN12C renal = test system: SN12C renal
786-0 renal = test system: 786-0 renal
PC-3 prostate = test system: PC-3 prostate
MDA-N = test system: MDA-N
MALME-3M melanoma = test system: MALME-3M melanoma
SNB-19 CNS = test system: SNB-19 CNS
MCF7 breast = test system: MCF7 breast
NCI/ADR-RES ovarian = test system: NCI/ADR-RES ovarian
A498 renal = test system: A498 renal
T-47D breast = test system: T-47D breast
A549 NSCLC = test system: A549 NSCLC
MDA-MB-435 = test system: MDA-MB-435
NCI-H226 lung = test system: NCI-H226 lung
HS 578T breast = test system: HS 578T breast
K-562 leukemia = test system: K-562 leukemia
MDA-MB-231 breast = test system: MDA-MB-231 breast
LOX IMVI melanoma = test system: LOX IMVI melanoma
CCRF-CEM leukemia = test system: CCRF-CEM leukemia
DU-145 prostate = test system: DU-145 prostate
CAKI-1 renal = test system: CAKI-1 renal
EKVX NSCLC = test system: EKVX NSCLC
SW-620 colon = test system: SW-620 colon
BT-549 breast = test system: BT-549 breast
RXF 393 renal = test system: RXF 393 renal
HCT-15 colon = test system: HCT-15 colon
OVCAR-8 ovarian = test system: OVCAR-8 ovarian

Measured: TGI

Cc1cnc2cc(Cl)ccc2c1NCCN(CC(C)C)CC(C)C
85.3 µM: HOP-92 NSCLC
not listed: TK-10 renal | SK-MEL-5 melanoma | SN12C renal | 786-0 renal | PC-3 prostate | MDA-N | MALME-3M melanoma | SNB-19 CNS | MCF7 breast | NCI/ADR-RES ovarian | A498 renal | T-47D breast | A549 NSCLC | MDA-MB-435 | NCI-H226 lung | HS 578T breast | K-562 leukemia | MDA-MB-231 breast | LOX IMVI melanoma | CCRF-CEM leukemia | DU-145 prostate | CAKI-1 renal | EKVX NSCLC | SW-620 colon | BT-549 breast | RXF 393 renal | HCT-15 colon | OVCAR-8 ovarian
> 100 µM: all other assays above

CCOC(=O)c1cc2c(OC)cc(OC)cc2oc1=O
not listed: KM20L2 colon | LXFL 529 NSCLC | UO-31 renal | DMS 114 small cell lung | KM12 colon | SNB-78 CNS | M19-MEL melanoma | SK-OV-3 ovarian
> 100 µM: all other assays above
